According to ChEMBL document CHEMBL5465560, “Selectivity Literature for EUbOPEN Chemogenomic Library” (2024):
Values belong to the compound of their own block, whether it stands above or below them.

Key:
[1] = molecular target: Phosphatidylinositol 4-kinase beta (Homo sapiens, UniProt Q9UBF8); assay: Selectivity interaction (Adapta Assay) EUB0001632a PI4KB; settings: at 10 µM
[2] = molecular target: Receptor tyrosine-protein kinase erbB-4 (Homo sapiens, UniProt Q15303); assay: Selectivity interaction (KinomeScan (DiscoverX)) EUB0000607a ERBB4; settings: at 10 µM
Chain of Receptor tyrosine-protein kinase erbB-4 (Q15303 whole entry): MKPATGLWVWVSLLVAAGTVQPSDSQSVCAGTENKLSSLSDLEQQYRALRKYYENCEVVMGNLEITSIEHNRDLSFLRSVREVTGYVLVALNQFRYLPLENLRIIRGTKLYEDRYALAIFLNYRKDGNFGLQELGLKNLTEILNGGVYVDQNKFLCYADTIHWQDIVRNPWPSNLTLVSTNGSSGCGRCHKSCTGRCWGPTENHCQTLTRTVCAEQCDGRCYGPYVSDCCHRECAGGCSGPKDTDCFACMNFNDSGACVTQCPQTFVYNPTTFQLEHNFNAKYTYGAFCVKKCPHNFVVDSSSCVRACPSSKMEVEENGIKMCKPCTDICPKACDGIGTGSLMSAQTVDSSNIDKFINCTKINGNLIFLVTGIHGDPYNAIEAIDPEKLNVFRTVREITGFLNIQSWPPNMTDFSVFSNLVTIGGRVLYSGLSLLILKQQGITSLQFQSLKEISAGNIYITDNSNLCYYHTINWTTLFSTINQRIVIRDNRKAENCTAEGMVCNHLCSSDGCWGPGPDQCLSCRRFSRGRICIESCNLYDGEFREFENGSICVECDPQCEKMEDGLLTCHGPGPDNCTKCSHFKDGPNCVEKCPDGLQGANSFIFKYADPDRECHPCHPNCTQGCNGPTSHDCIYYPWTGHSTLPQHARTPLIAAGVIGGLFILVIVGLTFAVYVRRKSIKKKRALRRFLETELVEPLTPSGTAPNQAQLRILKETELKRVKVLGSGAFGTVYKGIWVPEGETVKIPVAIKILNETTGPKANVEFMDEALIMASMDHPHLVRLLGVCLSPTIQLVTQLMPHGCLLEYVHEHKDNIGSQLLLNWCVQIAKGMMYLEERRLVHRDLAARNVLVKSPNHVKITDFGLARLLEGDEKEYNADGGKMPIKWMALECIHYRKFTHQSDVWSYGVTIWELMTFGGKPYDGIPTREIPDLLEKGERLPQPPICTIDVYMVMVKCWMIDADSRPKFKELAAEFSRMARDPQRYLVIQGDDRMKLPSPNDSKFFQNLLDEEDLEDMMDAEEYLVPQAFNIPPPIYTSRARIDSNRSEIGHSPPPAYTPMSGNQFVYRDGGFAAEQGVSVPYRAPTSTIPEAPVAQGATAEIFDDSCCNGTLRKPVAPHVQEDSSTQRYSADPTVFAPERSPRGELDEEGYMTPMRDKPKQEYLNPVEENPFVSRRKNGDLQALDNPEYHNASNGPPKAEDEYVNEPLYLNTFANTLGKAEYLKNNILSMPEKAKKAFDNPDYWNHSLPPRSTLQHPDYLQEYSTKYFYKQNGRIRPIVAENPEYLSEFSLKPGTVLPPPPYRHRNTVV

[3] = molecular target: Mitogen-activated protein kinase kinase kinase 11 (Homo sapiens) (UniProt Q16584); settings: at 10 µM
Chain of Mitogen-activated protein kinase kinase kinase 11 (Homo sapiens) (Q16584 whole entry, looked up): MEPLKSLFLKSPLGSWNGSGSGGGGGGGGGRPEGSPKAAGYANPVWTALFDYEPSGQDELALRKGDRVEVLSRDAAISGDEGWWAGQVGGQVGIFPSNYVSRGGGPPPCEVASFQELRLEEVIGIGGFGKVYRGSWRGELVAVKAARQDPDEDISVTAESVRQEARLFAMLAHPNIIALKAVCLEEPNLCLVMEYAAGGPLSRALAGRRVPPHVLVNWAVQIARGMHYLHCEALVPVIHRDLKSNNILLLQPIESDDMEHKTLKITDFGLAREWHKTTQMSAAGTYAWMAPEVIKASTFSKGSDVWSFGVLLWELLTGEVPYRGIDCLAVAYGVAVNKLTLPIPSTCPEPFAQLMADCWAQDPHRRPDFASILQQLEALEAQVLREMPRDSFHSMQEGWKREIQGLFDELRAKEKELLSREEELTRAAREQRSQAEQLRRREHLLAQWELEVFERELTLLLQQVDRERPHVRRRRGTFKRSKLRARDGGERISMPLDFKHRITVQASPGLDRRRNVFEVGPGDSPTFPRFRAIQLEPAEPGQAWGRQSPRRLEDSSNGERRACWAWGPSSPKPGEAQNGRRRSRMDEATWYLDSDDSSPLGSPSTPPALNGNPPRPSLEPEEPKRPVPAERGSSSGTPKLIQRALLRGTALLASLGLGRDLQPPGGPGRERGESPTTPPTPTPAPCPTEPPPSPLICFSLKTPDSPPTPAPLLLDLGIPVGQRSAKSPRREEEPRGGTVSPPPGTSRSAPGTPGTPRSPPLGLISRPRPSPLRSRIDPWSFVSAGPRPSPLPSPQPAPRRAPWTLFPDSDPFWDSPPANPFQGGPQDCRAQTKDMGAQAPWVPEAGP

[4] = molecular target: Ribosomal protein S6 kinase alpha-3 (Homo sapiens, UniProt P51812); settings: at 10 µM
Chain of Ribosomal protein S6 kinase alpha-3 (P51812 whole entry): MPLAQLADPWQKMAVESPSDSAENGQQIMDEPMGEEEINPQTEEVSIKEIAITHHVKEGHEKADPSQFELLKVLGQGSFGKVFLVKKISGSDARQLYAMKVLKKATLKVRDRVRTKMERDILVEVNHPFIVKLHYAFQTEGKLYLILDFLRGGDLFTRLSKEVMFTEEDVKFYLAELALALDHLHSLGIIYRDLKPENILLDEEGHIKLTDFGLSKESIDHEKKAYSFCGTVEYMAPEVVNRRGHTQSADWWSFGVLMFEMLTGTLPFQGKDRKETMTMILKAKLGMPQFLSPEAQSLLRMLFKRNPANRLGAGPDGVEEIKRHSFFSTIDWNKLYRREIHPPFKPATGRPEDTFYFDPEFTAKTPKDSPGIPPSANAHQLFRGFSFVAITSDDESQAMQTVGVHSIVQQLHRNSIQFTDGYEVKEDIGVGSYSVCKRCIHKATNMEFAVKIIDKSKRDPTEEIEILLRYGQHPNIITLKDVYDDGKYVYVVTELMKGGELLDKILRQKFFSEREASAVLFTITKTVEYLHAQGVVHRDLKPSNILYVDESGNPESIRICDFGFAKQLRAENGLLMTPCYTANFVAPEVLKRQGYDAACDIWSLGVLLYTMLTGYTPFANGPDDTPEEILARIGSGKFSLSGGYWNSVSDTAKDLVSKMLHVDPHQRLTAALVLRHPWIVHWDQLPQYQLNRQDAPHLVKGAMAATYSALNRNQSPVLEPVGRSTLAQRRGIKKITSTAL

[5] = molecular target: Calcium/calmodulin-dependent protein kinase type 1D (Homo sapiens) (UniProt Q8IU85); assay: Selectivity interaction (ActivX KiNativ screen (kinase selectivity in THP-1 cell lysates)) EUB0000639a CAMK1D; assay type: subcellular; settings: lysate, at 5 µM
Chain of Calcium/calmodulin-dependent protein kinase type 1D (Homo sapiens) (Q8IU85 whole entry, looked up): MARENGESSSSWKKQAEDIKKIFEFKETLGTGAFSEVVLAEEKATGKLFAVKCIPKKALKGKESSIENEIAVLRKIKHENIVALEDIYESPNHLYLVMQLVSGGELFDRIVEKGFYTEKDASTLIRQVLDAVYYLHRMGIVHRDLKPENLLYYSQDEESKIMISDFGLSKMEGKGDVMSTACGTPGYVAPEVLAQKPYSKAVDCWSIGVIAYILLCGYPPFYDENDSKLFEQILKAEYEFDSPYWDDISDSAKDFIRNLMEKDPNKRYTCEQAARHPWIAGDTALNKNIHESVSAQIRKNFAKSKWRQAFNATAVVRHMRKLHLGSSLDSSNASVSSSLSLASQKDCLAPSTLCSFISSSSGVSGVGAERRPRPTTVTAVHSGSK

[6] = molecular target: Serine/threonine-protein kinase PLK1 (Homo sapiens, UniProt P53350); assay: Selectivity interaction (Kinase panel (Invitrogen)) EUB0000639a PLK1; settings: at 200 nM
[7] = molecular target: Tyrosine-protein kinase Fes/Fps (Homo sapiens) (UniProt P07332); assay: Selectivity interaction (KinaseProfiler screening (Millipore)) EUB0000601a FES; settings: at 3 µM
[8] = molecular target: Death-associated protein kinase 3 (Homo sapiens) (UniProt O43293); settings: at 10 µM
Chain of Death-associated protein kinase 3 (Homo sapiens) (O43293 whole entry, looked up): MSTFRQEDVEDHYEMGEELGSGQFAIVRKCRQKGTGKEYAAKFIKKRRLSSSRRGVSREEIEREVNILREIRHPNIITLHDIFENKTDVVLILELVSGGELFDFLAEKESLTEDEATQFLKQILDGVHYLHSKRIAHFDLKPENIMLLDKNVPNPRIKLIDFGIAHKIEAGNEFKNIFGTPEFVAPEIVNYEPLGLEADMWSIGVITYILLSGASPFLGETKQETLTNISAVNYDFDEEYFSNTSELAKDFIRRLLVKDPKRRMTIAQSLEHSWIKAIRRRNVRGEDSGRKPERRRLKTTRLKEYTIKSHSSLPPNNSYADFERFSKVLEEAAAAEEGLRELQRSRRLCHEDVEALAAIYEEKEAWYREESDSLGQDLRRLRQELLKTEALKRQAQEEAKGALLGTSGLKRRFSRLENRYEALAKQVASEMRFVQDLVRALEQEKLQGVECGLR

[9] = molecular target: T1, Serine/threonine-protein kinase TAO3 (Homo sapiens) (UniProt Q9H2K8); assay: Selectivity interaction (KinomeScan (DiscoverX)) EUB0001049a TAOK3; settings: at 1 µM
T1 sequence (whole entry): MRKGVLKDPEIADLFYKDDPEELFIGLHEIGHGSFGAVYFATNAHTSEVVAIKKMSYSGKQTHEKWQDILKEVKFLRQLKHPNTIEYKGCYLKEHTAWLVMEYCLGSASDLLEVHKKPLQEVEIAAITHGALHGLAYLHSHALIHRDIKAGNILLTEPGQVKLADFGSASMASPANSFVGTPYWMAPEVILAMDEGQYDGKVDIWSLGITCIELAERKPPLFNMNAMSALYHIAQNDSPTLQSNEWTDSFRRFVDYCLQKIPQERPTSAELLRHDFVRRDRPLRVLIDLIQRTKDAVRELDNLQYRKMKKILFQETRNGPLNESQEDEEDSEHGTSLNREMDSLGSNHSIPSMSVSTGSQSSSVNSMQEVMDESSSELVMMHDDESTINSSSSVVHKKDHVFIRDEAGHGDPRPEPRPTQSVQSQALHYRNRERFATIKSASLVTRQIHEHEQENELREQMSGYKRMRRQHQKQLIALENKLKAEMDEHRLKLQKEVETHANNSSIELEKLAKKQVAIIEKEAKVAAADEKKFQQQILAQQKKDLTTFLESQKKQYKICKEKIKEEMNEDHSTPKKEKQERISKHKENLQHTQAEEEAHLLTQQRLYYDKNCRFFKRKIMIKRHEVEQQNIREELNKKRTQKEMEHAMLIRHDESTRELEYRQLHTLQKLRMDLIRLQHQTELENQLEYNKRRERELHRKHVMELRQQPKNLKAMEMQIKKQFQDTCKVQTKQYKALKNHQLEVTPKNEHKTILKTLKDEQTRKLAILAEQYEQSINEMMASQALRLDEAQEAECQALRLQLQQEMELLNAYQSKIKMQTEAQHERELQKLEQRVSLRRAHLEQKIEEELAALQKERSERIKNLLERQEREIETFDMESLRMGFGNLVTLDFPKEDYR

[10] = molecular target: T2, Serine/threonine-protein kinase Nek11 (Homo sapiens) (UniProt Q8NG66); assay: Selectivity interaction (KinomeScan (DiscoverX)) EUB0001049a NEK11; settings: at 1 µM
T2 sequence (whole entry): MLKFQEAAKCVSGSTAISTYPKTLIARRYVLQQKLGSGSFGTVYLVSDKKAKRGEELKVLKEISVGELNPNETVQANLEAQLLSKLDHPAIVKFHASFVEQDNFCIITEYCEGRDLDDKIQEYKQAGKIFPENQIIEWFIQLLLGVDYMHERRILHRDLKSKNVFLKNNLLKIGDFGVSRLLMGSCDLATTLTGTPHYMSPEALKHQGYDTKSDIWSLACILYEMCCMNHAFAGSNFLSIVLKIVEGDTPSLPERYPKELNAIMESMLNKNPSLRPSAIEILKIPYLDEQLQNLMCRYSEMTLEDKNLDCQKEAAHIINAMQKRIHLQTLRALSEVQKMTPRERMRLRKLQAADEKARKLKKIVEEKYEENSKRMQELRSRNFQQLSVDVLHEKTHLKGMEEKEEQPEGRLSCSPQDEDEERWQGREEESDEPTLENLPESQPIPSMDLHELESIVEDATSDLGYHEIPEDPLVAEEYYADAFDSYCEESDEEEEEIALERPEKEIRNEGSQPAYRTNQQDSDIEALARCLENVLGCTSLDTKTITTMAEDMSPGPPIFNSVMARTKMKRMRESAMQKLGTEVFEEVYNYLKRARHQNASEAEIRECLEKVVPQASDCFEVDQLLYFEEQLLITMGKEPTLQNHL

[11] = molecular target: T3, NUAK family SNF1-like kinase 1 (Homo sapiens) (UniProt O60285); assay: Selectivity interaction (KinomeScan (DiscoverX)) EUB0000045b NUAK1
T3 sequence (whole entry): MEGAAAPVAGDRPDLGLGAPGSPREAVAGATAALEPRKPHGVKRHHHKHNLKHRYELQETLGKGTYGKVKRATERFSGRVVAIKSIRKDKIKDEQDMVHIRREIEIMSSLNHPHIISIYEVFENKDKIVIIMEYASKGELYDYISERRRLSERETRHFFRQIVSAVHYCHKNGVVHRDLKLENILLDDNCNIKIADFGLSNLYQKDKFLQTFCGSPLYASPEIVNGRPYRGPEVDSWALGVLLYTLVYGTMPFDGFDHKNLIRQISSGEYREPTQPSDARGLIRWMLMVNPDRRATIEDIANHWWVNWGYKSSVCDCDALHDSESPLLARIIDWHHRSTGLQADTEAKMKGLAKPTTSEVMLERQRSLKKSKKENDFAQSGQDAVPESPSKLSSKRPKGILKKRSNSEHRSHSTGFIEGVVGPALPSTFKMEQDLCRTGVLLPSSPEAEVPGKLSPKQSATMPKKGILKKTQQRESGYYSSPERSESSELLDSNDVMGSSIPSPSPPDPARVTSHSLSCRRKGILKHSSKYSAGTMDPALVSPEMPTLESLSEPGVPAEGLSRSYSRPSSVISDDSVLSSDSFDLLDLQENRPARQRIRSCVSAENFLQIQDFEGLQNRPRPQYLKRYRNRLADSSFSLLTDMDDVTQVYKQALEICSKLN

[12] = molecular target: Mitogen-activated protein kinase 10 (Homo sapiens, UniProt P53779); assay: Selectivity interaction (KinomeScan (DiscoverX)) EUB0001079a MAPK10; settings: at 1 µM
Chain of Mitogen-activated protein kinase 10 (P53779 whole entry): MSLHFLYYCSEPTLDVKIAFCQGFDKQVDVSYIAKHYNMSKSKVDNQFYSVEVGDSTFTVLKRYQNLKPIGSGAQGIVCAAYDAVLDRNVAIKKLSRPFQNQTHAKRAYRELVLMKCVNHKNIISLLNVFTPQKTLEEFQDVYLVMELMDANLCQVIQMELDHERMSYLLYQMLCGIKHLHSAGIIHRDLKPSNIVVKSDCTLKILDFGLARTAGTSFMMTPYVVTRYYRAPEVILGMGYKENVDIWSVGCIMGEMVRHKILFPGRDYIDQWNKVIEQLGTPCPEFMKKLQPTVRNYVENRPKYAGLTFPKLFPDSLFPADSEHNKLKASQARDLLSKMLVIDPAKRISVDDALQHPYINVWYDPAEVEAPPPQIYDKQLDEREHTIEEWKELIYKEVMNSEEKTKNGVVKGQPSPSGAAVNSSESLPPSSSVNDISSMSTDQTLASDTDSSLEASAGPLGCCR

Chain of Phosphatidylinositol 4-kinase beta (Q9UBF8 2-816 limits assumed): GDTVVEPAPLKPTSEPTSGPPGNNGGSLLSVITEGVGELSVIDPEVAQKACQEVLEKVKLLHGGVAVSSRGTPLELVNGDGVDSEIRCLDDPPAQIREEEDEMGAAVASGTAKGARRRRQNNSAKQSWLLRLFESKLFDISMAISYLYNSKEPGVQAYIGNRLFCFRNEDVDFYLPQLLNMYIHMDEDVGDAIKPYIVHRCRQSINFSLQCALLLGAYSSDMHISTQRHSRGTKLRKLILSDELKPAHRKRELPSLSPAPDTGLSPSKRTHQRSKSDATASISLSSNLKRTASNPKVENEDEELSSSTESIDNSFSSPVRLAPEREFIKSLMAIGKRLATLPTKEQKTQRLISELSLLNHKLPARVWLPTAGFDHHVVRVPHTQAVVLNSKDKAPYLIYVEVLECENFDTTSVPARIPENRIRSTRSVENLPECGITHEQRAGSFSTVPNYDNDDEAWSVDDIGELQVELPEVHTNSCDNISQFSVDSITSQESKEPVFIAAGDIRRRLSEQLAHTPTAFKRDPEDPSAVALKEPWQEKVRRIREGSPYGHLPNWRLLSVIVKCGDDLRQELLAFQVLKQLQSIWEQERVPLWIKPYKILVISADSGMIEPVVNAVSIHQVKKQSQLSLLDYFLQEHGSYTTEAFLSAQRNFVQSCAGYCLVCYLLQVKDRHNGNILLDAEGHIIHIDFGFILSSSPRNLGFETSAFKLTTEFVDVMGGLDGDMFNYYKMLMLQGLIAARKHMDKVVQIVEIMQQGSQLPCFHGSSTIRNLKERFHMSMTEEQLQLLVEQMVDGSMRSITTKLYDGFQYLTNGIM

- % of inhibition [1]: -10.8%
Structure (SMILES): Cn1cc(-n2cnc3c(NCc4nc5cc(Cl)c(Cl)cc5[nH]4)nc(N4CCOCC4)nc32)cn1

Structure (SMILES): CNC(=O)Nc1ccc(-c2nc(N3CC4CCC(C3)O4)c3cnn(C4CCC5(CC4)OCCO5)c3n2)cc1
- % of control [2]: 100%

- % of control [3]: 100%
- % of control [4]: 100%
Structure (SMILES): CCN(CC)CCCCNc1ncc2cc(-c3cc(OC)cc(OC)c3)c(NC(=O)NC(C)(C)C)nc2n1

- % of inhibition [5]: 16.3%
- % of inhibition [6]: 4.41%
Structure (SMILES): CC[C@@H]1[C@H](F)C(=O)N[C@@H]1COc1nccc2cc(C(N)=O)c(OC)cc12 [ZIMLOVISERTIB]

- % of inhibition [7]: 82%
Structure (SMILES): CCc1cc(Nc2nccc(-c3c(-c4ccc(OC)c(C(=O)Nc5c(F)cccc5F)c4)nc4ccccn34)n2)c(OC)cc1N1CCC(N2CCN(S(C)(=O)=O)CC2)CC1

Structure (SMILES): COCC(=O)NC/C=C/c1ccc2ncnc(Nc3ccc(Oc4ccc(C)nc4)c(C)c3)c2c1 [CP-724714]
- % of control [8]: 96%

Structure (SMILES): COc1cc(Nc2nc(C)cc(-c3cnn4nc(OC)ccc34)n2)cc(C(F)(F)F)c1
- % of control [9]: 75%
- % of control [10]: 99%

Structure (SMILES): C=CC(=O)Nc1cc(-n2c(=O)ccc3cnc4ccc(-c5ccc(NS(C)(=O)=O)cc5)cc4c32)ccc1C
- % of control ([11]; at 1 µM): 100%
- % of control ([11]; at 10 µM): 76%

Structure (SMILES): Nc1cnc(N2CCc3cc(S(=O)(=O)Nc4c(F)cc(Cl)cc4F)cc(N4CCCC4=O)c32)nc1 [TP-020n]
- % of control [12]: 94%
